Key:
CTL-34 = assay: Recognition of HER-2 peptides by ovarian tumor associated CTL (lysis of peptide-sensitized targets); format: cell-based, human
Protocol: Target cells were labeled with ^51Cr (Na^51CrO4; Amersham, Arlington Heights, Ill.) for 90 min at 37° C. (Ioannides et al., 1991; Ioannides et al., 1991), or overnight in RPMI medium, containing 10% FCS, 100 μg/ml L-glutamine and 40 μg/ml gentamycin (RPMI-FCS), then washed and incubated with the effector cells in complete RPMI-FCS in an incubator with 5% CO2. Targets were incubated either with 25 μM of peptide overnight during labeling, or with 10 μM peptide for 2 h at 37° C. in RPMI-FCS, then washed three times before being incubated with effector cells. Separate controls for spontaneous and total lysis of targets were made for each peptide pulsed target (Ioannides et al., 1993; Fisk et al., 1994; Gammon et al., 1992). After 4-5 h of incubation 100 μl of supernatant were collected and counted. Percent lysis was calculated from the formula: 100×[(E−S)/(T−S)], were E=experimental release, S=release in the absence of CTL, T=release in 2 M HCl.

HLA-A2 of T2 cells = molecular target: T1, HLA-A2 of T2 cells (Homo sapiens, UniProt P04439, D140Y/D185E/D98H/E176V/E277Q/G131W/G231S/I119V/I121R/I166T/I218V/L300P/L318F/N151K/N90K/P208A/P217A/Q86G/Q94H/R138H/R169H/T345S); assay: Reactivity of MA2.1 mAb with T2 cells after culture with peptide (immunofluorescence, FL1); format: cell-based; conditions: peptide 50 μg/ml, overnight culture in IMDM-FCS
T1 construct: cell surface expression of HLA-A2 is lower (30-40%) than in normal LBL lines transfected with HLA-A2; endogenous in cells; host or cells: T2 (transport deletion mutant) human lymphoblastoid cells, obtained from Dr. Peter Creswell
Protocol: FIG. 5A. Effects of HER-2 peptides on reactivity of MA2.1 mAb with T2 cells. Fluorescence analysis and determination of FL1 were performed as described (Stauss et al., 1992). Peptides were added to T2 cells at 50 μg/ml (final concentration). After overnight culture, in IMDM-FCS, cells were washed and the levels of HLA-A2 expression were determined using HLA-A2 specific mAb.
mAbs to CD3 (OKT3-FITC), CD4 (OKT4-FITC) and CD8 (OKT8-FITC) were obtained from Ortho Diagnostic (Ortho, Raritan, N.J.), mAb W6/32 (anti-HLA, -A, -B, -C) from Dako (Dako-Dakopatts, Denmark); HLA-A2 reacting mAb BB7.2 and MA2.1 from ATCC. Immunofluorescence studies were performed as described in Example 1.
To determine whether these peptides and longer analogs affect HLA-A2 conformation as an indication of HLA-A2 binding, the effects of HER-2 peptides on the reactivity of conformationally dependent mAb MA2.1 and BB.7.2 were examined with HLA-A2 of T2 cells. The human cell line T2 has a defect affecting endogenous peptide loading of MHC class I molecules. As a consequence, cell surface expression of HLA-A2 is lower (30-40%) than in normal LBL lines transfected with HLA-A2 (e.g., C1R) but the reactivity of MA2.1 and BB.7.2 mAb is increased when certain HLA-A2 binding peptides are added to the culture medium (Anderson et al., 1993). Although most human MHC class I molecules cannot be induced at the low temperatures used for their murine counterparts because of fundamental structural differences between human and mouse class I (Anderson et al., 1993), the fact that they express few endogenous (mainly signal) peptides (Zweerink et al., 1993) increases the sensitivity of detection of peptide-HLA-A2 interaction.

three HLA-A2+ CTL lines = assay: Recognition of nonapeptides by CTLs associated with and lysing ovarian tumors; format: cell-based, human; conditions: for CTL lines recognizing the peptide: of three HLA-A2+ CTL lines; for designation based on the levels of lysis induced: three HLA-A2+ CTL lines

FL1 of T2 cells stained with MA2.1 mAb (HLA-A2 of T2 cells) | Sequence | % of C85 (target lysis by CTL in the presence of peptide as % of positive control C85) (CTL-34) | CTL lines recognizing the peptide (three HLA-A2+ CTL lines) | designation based on the levels of lysis induced (three HLA-A2+ CTL lines)
moderate increase in FL1 | EIWTHSTKV [Peptide E39, reference compound] |  |  | 
failed to induce an increase in FL1 | LLSLALMLL [Peptide E41, reference compound] |  |  | 
very high increase in FL1 | NLGPWIQQV [Peptide E38, reference compound] |  |  | 
failed to induce an increase in FL1 | SLALMLLWL [Peptide E40, reference compound] |  |  | 

Further lines, the sequence ahead of its results:

Sequence | FL1 of T2 cells stained with MA2.1 mAb (HLA-A2 of T2 cells) | % of C85 (target lysis by CTL in the presence of peptide as % of positive control C85) (CTL-34) | CTL lines recognizing the peptide (three HLA-A2+ CTL lines) | designation based on the levels of lysis induced (three HLA-A2+ CTL lines)
CLTSTVQLV [Peptide E90, HER-2:788-796] |  | 1.149 % of C85 |  | 
DLGMGAAKGL [Peptide D99, decapeptide HER-2:1089-1098] | slight increase in FL1 |  |  | 
ELVSEFSKV [Peptide C83, C85 analog with strengthened P9 and P8] | did not increase further the FL1 |  |  | 
LQVFETLEEITGYL [Peptide D120, HER-2:397-410] | increased the FL1 only slightly |  |  | 
LVSEFSRMARDPQ [Peptide B69, HER-2:972-984] | failed to significantly increase FL1 |  |  | 
PLQPEQLQV [Peptide E77, HER-2:391-399] |  | 0.300 % of C85 | 2/3 | moderate
QLMPYGCLL [Peptide E71, HER-2:798-806] |  | 0.600 % of C85 | 2/3 | high
QLQVFETLEEI [Peptide D122, HER-2:396-406] | increased the FL1 only slightly |  |  | 
RIAWARTEL [Peptide E37, reference compound] | failed to affect MA2.1 epitope expression |  |  | 
VLVKSPNHV [Peptide E89, HER-2:851-859] |  | 1.149 % of C85 | 2/3 | high

Reference: patent US6514942B1, “Methods and compositions for stimulating T-lymphocytes” (The Board of Regents, The University of Texas System, priority 1995, dated 2003)
